pIC50: −log10 of the molar value. Activity calls are given as the source filed them. The rule behind the calls is not given here.

One data set addresses Tubulin beta. Description: Binding affinity to beta tubulin in HEK293 cells assessed as disruption of microtubule polymerization by ITDRF-CETSA assay. The class given is cell-based, Homo sapiens.
Data set [1] deals with Cyclin-dependent kinase 1 (Homo sapiens) (UniProt P06493). Briefly: Activation of CDK1 in human HL-60 cells assessed as activation of caspase 7 at 300 nM after 24 hrs by Western blot analysis. The note with it: filed as activator. Type of data set: cell-based. (In general: In western blotting, separated proteins are transferred to a membrane and probed.)
The target is the same in data set [2]. Briefly: Activation of CDK1 in human HL-60 cells assessed as induction of Bcl2 phosphorylation at Ser70 residue at 300 nM after 24 hrs by Western blot analysis. Type of data set: cell-based. The note with it: filed as activator.
The target of data set [3] is Tyrosine-protein kinase JAK1 (Homo sapiens) (UniProt P23458). Briefly: Inhibition of wild-type human partial length JAK1 JH2 pseudokinase domain (R537 to D855 residues) expressed in mammalian expression system assessed as residual activity at 1 uM by Kinomescan method relative to control.
The target of another data set is Tubulin (Homo sapiens) (UniProt P68371+Q9H4B7+P0DPH7+P68366+Q13509+Q71U36+P04350+Q3ZCM7+P07437+P68363+Q9BQE3+Q6PEY2+Q13885+Q9BVA1+Q9BUF5). Description: Inhibition of tubulin polymerization in human MOLM-13 cells assessed as disruption of microtubule network at 500 nM after 18 hrs by FITC-staining based flow cytometry analysis. Type of data set: cell-based. (In general: A flow cytometer gives signals particle by particle.)

The nature of data set [4]: Toxicity in sub-lethal irradiated C57BL/6J mouse xenografted with […] MLL-AF9 cells assessed as HCT level at 5 mg/kg measured after 2 weeks (reference value: 45 +/- 1.4 %). The class given is organism-based. The note with it: in vivo, 336 h.
Data set [5] in a line: Toxicity in sub-lethal irradiated C57BL/6J mouse xenografted with […] MLL-AF9 cells assessed as platelet level at 5 mg/kg measured after 2 weeks (reference value: 687 +/- 53 10^3/ml). Type of data set: organism-based. Particulars: in vivo, 336 h. (In general: A xenograft is tissue or cells of one species grown in another, often human tumour cells in immunodeficient mice.)

The target of data set [6] is T1, Sphingosine kinase 1/2 (Homo sapiens) (UniProt Q9NRA0+Q9NYA1). Briefly: Inhibition of SPHK1/SPHK2 in human HL-60 cells assessed as C18:0 ceramide level assessed per 10^6 cells at 500 nM after 24 hrs by LC-ESI/MS analysis (reference value: 1.6 +/- 0.2 pmol). Type of data set: cell-based.
A further data set concerns HL-60. Briefly: Cytotoxicity against human HL-60 cells assessed as reduction in cell viability after 48 hrs by MTT assay. Type of data set: functional, cell-based. Particulars: HL-60, 48 h.
For another data set, the system named is MLL-AF9. Description: Antitumor activity against human MLL-AF9 xenografted in sub-lethal irradiated C57BL/6J mouse assessed as increase in mouse survival at 1 to 5 mg/kg administered every day. The class given is functional, organism-based. The note with it: dose mg/kg 1-5.
A short description of data set [7]: Toxicity in sub-lethal irradiated C57BL/6J mouse xenografted with […] MLL-AF9 cells assessed as RBC level at 5 mg/kg measured after 2 weeks (reference value: 9.8 +/- 0.3 10^6/ml). Type of data set: organism-based. The note with it: in vivo, 336 h.
Data set [8] is described as follows: Effect on hematopoiesis in sub-lethal irradiated C57BL/6J mouse xenografted with […] MLL-AF9 cells assessed as CD45.1+/CD34 cells in bone marrow at 2.5 mg/kg measured after 6 weeks by flow cytometry analysis (reference value: 93 %). Type of data set: ADME, organism-based. The note with it: in vivo, 1008 h.
The nature of data set [9]: Toxicity in sub-lethal irradiated C57BL/6J mouse xenografted with […] MLL-AF9 cells assessed as platelet level at 1 mg/kg measured after 2 weeks (reference value: 687 +/- 53 10^3/ml). Type of data set: organism-based. Particulars: in vivo, 336 h.
The target of data set [10] is Cyclin-dependent kinase 1 (Homo sapiens) (UniProt P06493). Description: Activation of CDK1 in human HL60/VCR cells assessed as activation of caspase 7 at 300 nM after 24 hrs by Western blot analysis. Type of data set: cell-based. The note with it: filed as activator.
Data set [11] has the same target. Description: Activation of CDK1 in human HL60/VCR cells assessed as induction of Bcl2 phosphorylation at Ser70 residue at 300 nM after 24 hrs by Western blot analysis. Type of data set: cell-based. The note with it: filed as activator.
Data set [12] addresses T2, Sphingosine kinase 2 (Homo sapiens) (UniProt Q9NRA0).
T2 sequence (whole entry): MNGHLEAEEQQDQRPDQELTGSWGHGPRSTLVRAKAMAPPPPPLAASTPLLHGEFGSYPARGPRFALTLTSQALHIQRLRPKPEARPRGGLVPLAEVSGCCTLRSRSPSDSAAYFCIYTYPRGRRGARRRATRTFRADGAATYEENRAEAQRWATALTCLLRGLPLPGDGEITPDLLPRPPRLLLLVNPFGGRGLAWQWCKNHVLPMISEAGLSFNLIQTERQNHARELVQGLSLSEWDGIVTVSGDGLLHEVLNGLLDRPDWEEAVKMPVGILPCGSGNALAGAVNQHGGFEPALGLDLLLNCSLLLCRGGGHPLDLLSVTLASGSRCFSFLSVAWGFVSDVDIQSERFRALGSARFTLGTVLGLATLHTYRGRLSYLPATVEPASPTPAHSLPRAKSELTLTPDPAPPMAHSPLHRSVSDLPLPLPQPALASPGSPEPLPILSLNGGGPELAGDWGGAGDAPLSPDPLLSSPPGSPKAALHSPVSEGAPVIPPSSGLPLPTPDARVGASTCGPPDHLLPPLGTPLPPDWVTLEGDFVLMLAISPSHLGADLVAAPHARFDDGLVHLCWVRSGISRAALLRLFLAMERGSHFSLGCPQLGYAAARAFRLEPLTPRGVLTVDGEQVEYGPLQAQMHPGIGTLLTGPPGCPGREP
Briefly: Inhibition of SphK2 (unknown origin) catalytic activity at 2 to 5 uM. The note with it: dose microM 2-5.

Data set [13] concerns the target Cyclin-dependent kinase 1 (Homo sapiens) (UniProt P06493). Description: Activation of CDK1 in human HL-60 cells assessed as induction of Bcl2 phosphorylation at Ser70 residue at 300 nM after 24 hrs in presence of Ro-3306 by Western blot analysis. The class given is cell-based.
A short description of data set [14]: Cytotoxicity against human HL60/VCR cells assessed as reduction in cell viability after 48 hrs by MTT assay. Type of data set: functional, cell-based.
Data set [15] is described as follows: Toxicity in sub-lethal irradiated C57BL/6J mouse xenografted with […] MLL-AF9 cells assessed as RBC level at 1 mg/kg measured after 2 weeks (reference value: 9.8 +/- 0.3 10^6/ml). The class given is organism-based. Particulars: in vivo, 336 h.
Data set [16] addresses T1, Sphingosine kinase 1/2 (Homo sapiens). Description: Inhibition of SPHK1/SPHK2 in human HL-60 cells assessed as induction of apoptosis by measuring spindle assembly checkpoint arrest at 1 uM after 16 hrs by Western blot analysis. Type of data set: cell-based.
Data set [17] is described as follows: Effect on hematopoiesis in sub-lethal irradiated C57BL/6J mouse xenografted with […] MLL-AF9 cells assessed as CD45.1+/CD34 cells in spleen at 1 mg/kg measured after 6 weeks by flow cytometry analysis (reference value: 90 %). Type of data set: ADME, organism-based. Particulars: in vivo, 1008 h.
Data set [18] can be described thus: Effect on hematopoiesis in sub-lethal irradiated C57BL/6J mouse xenografted with […] MLL-AF9 cells assessed as CD45.1+/CD34 cells in spleen at 5 mg/kg measured after 6 weeks by flow cytometry analysis (reference value: 90 %). The class given is ADME, organism-based. Particulars: in vivo, 1008 h.

Sequence of Cyclin-dependent kinase 1 (Homo sapiens) (P06493 whole entry, looked up): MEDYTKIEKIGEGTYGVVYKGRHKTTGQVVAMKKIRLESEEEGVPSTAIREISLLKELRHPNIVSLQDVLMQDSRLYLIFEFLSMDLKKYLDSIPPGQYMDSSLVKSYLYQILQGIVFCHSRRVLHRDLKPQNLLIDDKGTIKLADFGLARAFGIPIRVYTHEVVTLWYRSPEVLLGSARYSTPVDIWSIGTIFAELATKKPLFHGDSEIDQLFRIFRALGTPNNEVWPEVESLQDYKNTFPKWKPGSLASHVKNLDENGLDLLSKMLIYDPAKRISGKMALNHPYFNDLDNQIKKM
T1 sequence (Q9NYA1 whole entry, looked up, one chain of several): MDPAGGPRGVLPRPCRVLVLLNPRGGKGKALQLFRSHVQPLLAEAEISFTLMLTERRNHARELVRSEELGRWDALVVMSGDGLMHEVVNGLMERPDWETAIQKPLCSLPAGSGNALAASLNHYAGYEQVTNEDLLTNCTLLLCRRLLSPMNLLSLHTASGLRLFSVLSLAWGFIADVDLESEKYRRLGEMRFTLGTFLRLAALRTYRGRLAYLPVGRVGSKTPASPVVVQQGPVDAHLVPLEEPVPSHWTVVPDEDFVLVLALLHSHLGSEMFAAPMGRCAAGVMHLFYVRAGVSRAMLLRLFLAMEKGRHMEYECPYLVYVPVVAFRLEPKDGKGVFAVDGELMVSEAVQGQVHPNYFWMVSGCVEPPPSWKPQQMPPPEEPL
Sequence of Tyrosine-protein kinase JAK1 (Homo sapiens) (P23458 whole entry, the tested form may be a part): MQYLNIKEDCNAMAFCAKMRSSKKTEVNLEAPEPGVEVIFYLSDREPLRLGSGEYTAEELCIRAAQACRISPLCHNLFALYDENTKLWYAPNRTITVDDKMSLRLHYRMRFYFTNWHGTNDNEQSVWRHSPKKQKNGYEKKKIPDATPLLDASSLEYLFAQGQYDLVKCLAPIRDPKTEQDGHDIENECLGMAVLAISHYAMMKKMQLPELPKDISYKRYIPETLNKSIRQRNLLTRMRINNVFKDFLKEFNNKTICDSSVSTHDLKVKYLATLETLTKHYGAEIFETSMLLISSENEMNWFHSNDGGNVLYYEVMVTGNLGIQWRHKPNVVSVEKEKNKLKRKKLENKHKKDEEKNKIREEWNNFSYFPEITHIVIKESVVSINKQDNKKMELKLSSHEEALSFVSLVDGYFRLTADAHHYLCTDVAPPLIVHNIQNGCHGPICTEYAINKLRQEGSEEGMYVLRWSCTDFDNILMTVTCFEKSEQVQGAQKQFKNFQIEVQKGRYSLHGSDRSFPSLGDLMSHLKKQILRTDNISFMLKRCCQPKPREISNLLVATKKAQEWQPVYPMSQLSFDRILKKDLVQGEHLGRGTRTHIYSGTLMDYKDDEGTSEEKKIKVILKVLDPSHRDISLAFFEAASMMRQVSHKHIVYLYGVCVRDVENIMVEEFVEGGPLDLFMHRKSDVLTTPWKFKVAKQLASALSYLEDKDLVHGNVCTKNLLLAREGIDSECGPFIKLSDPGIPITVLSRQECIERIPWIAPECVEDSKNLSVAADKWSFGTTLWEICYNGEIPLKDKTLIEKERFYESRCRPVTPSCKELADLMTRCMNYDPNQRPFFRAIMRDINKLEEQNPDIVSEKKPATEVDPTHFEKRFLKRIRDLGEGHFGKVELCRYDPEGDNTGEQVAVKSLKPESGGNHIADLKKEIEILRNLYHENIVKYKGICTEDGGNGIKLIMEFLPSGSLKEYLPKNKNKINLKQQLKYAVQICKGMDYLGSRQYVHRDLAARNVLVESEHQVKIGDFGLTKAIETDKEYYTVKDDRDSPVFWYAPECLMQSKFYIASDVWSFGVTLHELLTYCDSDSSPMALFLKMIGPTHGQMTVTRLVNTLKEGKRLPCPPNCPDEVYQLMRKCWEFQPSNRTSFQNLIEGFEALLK

As for `COc1ccc(Nc2nc(N)c(C(=O)c3ccc(OC)c(OC)c3)s2)cc1`, the IC50 (commonly the concentration needed to halve the response being measured) at Tubulin beta worked out at 25 nM. The outcome (in data set [1]; in [2]; in the data set on MLL-AF9; in [10]; in [11]; in [16]) was Active. For the same molecule, the Activity is 5.4% in data set [3]; 41% in [4]; 1089 10^3/ml in data set [5]; 4.7 pmol in data set [6]; 9 10^6/ml in data set [7]; 7% in [8]. The Activity is listed as 1193 10^3/ml in data set [9], 9.2 10^6/ml in data set [15], 8% in [17] and 7% in [18]. Besides, the inhibition entry at Tubulin (Homo sapiens) is “Active”. Moreover, the pIC50 (in general, the negative decadic logarithm of the IC50, by convention in mol/L) in the data set with HL-60 was 7.66; in data set [14] it was 7.64. The inhibition entry in data set [12] was “inactive”. Further, the outcome in data set [13] was inactive.

These data come from ChEMBL document CHEMBL4665719, “Development of SKI-349, a dual-targeted inhibitor of sphingosine kinase and microtubule polymerization” (Bioorg Med Chem Lett, 2020).
